16 compounds from ChEMBL document CHEMBL1135054, “Biphenylsulfonamide endothelin receptor antagonists. Part 3: structure-activity relationship of 4'-heterocyclic biphenylsulfonamides” (Bioorg Med Chem Lett, 2002) can be followed below.

What is called Ki is a dissociation constant, usually derived from enzyme kinetics or from competition with a known ligand. High values mean a looser hold on the target, low ones a stronger hold on the target.

Each structure is given as a SMILES string.

In assay [1] the target is T1, Endothelin receptor type B (Homo sapiens, UniProt P24530).
T1 sequence (P24530 whole entry): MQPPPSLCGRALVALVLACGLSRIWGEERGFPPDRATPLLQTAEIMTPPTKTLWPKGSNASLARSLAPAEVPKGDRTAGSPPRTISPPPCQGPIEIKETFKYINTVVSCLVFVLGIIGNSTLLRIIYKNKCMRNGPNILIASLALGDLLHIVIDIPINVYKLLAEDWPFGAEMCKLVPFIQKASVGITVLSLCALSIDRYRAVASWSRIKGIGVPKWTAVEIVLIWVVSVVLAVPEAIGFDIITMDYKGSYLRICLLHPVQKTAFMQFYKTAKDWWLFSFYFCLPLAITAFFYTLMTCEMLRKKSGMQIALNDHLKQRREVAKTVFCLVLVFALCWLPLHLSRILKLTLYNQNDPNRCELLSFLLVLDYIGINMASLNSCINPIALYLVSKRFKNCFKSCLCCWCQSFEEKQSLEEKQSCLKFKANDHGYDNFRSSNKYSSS
In words: Binding affinity to CHO cells stably expressing human Endothelin B receptor. It is filed as cell-based.

In assay [2] the target is T2, Endothelin-1 receptor (Homo sapiens, UniProt P25101).
T2 sequence (P25101 whole entry): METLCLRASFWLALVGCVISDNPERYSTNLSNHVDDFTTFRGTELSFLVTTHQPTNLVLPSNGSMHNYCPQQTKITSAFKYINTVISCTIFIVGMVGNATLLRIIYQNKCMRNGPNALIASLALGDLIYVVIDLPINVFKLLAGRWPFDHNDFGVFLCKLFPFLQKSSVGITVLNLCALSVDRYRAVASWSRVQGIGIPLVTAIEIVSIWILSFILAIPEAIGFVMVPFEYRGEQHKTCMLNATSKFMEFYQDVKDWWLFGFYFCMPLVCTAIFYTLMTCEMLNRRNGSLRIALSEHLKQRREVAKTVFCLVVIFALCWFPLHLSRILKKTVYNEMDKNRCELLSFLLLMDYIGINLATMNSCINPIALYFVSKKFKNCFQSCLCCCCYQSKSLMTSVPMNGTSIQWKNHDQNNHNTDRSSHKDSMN
In words: biochemical.
Description: Binding affinity to CHO cells stably expressing human Endothelin A receptor.

Consider `Cc1noc(NS(=O)(=O)c2ccccc2-c2ccc(-c3cccnc3)cc2)c1C`, for which the Ki in assay [1] is 20 µM; in assay [2], 0.0033 µM.
For `Cc1noc(NS(=O)(=O)c2ccccc2-c2ccc(-c3nccn3C)cc2)c1C` the same measures were 120 µM and 0.019 µM.
Take `Cc1noc(NS(=O)(=O)c2ccccc2-c2ccc(-c3ccncn3)cc2)c1C`: the Ki was determined as 130 µM in assay [1] and 0.025 µM in assay [2].
For `Cc1noc(NS(=O)(=O)c2ccccc2-c2ccc(-c3nccs3)cc2)c1C` the same measures were 52 µM and 0.0056 µM.
Take `Cc1noc(NS(=O)(=O)c2ccccc2-c2ccc(-c3ncc[nH]3)cc2)c1C`: the figures for the Ki in assay [1] and in assay [2] were 150 µM and 0.044 µM, respectively.
For `Cc1noc(NS(=O)(=O)c2ccccc2-c2ccc(-c3nnco3)cc2)c1C` the same measures were 75 µM and 0.004 µM.
Take `Cc1noc(NS(=O)(=O)c2ccccc2-c2ccc(-c3cncnc3)cc2)c1C`: the Ki is 170 µM in assay [1] and 0.3 µM in assay [2].
For the compound `Cc1noc(NS(=O)(=O)c2ccccc2-c2ccc(-c3ccno3)cc2)c1C`, the results for the Ki in assay [1] and in assay [2] were 39 µM and 0.27 µM, respectively.
As for `Cc1noc(NS(=O)(=O)c2ccccc2-c2ccc(-c3ncccn3)cc2)c1C`, the Ki worked out at 16 µM in assay [1] and 0.0009 µM in assay [2].
For `Cc1noc(NS(=O)(=O)c2ccccc2-c2ccc(-c3cnccn3)cc2)c1C` the same measures were 22 µM and 0.0062 µM.
For `COc1cc(OC)nc(-c2ccc(-c3ccccc3S(=O)(=O)Nc3onc(C)c3C)cc2)n1` the same measures were 48 µM and 0.22 µM.
For `Cc1[n-][o+]c(NS(=O)(=O)c2ccccc2-c2ccc(-c3cccc[n+]3[O-])cc2)c1C` the same measures were 30.8 µM and 0.037 µM.
`Cc1noc(NS(=O)(=O)c2ccccc2-c2ccc(-c3ccccn3)cc2)c1C`: the Ki in assay [1] was 6.3 µM; in assay [2] it was 0.0023 µM.
`Cc1noc(NS(=O)(=O)c2ccccc2-c2ccc(-n3cccn3)cc2)c1C`: the figures for the Ki in assay [1] and in assay [2] were 9.4 µM and 0.0067 µM, respectively.
With `Cc1noc(NS(=O)(=O)c2ccccc2-c2ccc(-c3ccccc3)cc2)c1C`, the results for the Ki in assay [1] and in assay [2] were 20 µM and 0.038 µM, respectively.
For `Cc1noc(NS(=O)(=O)c2ccccc2-c2ccc(-c3nnn[nH]3)cc2)c1C` the same measures were more than 200 µM and 3.8 µM.
